# Read-outs that look alike come from different tables or passages of the source.
# Legend:
# [1] = tested on: MV4;11 cells; experiment: Cell Titer-Glo Luminescent Cell Viability Assay, cell growth inhibition against MV4;11 cells; type: cell-based; conditions: Homo sapiens
# Method: Cell growth inhibition against MV4;11 cells was confirmed for the synthetic compounds. The Cell Titer-Glo Luminescent Cell Viability Assay (Promega, USA) was used to determine the number of viable cells in culture based on quantitation of the ATP present, which signals the presence of metabolically active cells. This assay was run in a 96-well plate format arrayed in a 10-point dose curve, ranging from 0 to 50 μM with 4-fold dilutions for each compound. Cells are seeded on Day 0 at 3750 cells per well. At Day 5, a portion of each well is assayed for viability according to the Cell Titer-Glo protocol. Briefly, cells/plates were centrifuged at 1100×g for 5 minutes. 100 μL of media was removed from each well and replaced with 100 μL of CellTiter-Glo. The plates were shaken at room temperature for 10 minutes and measured on a luminescence plate reader. Another portion of each well from the Day 5 plate is used to seed a new 96 plate containing fresh compound and media set up in the equivalent 10-point dose curve array in order to continue the cell growth inhibition assay for another 5 days. A final timepoint is collected at Day 10 using the Cell Titer-Glo protocol. Luminescence was detected on an EnVision® Multilabel Plate Reader (Perkin Elmer, Waltham, Mass.) and IC50 determination was made using Graph Pad Prism software.
# [2] = target: LSD1 (Homo sapiens, UniProt O60341); experiment: LSD1 10-dose IC50 fluorescence coupling enzyme assay (HRP/Amplex Red, resorufin); type: biochemical; conditions: 10 M histone H3(1-21)K4me2 peptide substrate; 3-fold serial dilution in duplicate starting at 100 μM
# Method: Compounds were tested in a 10-dose IC50 mode fluorescence coupling enzyme assay with 3-fold serial dilution in duplicate starting at 100 μM. The production of FAD-dependent H2O2 as a result of demethylase activity of LSD1 on […] histone H3(1-21)K4me2 peptide substrate was measured by coupling with HRP and Amplex Red to yield resorufin (fluorescence measured at Ex/Em=535/590 nm on EnVision, Perkin Elmer).
# [3] = MV4-11, 120 h, MV4;11 cells, Day 5, 10-point dose curve 0 to 50 μM, read-out: Cell Titer Glo IC50 (5 d)
# [4] = MV4-11, MV4;11 cells, Day 10 (re-seeded at Day 5 with fresh compound), 10-point dose curve 0 to 50 μM, read-out: Cell Titer Glo IC50 (10 d)
Structure (SMILES),"IC50 [1, 3] [nM]",IC50 [2] [nM],"IC50 [1, 4] [nM]","IC50 ([1]; MV4;11 cells, Day 10 (re-seeded at Day 5 with fresh compound), 10-point dose curve 0 to 50 μM, read-out: Cell Titer Glo IC50 (10 d)) [nM]"
"Cc1ccc(-n2nc(C(=O)N3CCC[C@H](N)C3)cc2-c2ccc(C#N)c(F)c2)cc1 [Example 12, (S)-4-(3-(3-Aminopiperidine-1-carbonyl)-1-(p-tolyl)-1H-pyrazol-5-yl)-2-fluorobenzonitrile]",< 500,< 500,< 500,–
"Cc1cc(CCn2nc(C(=O)N3CCC[C@@H](N)C3)cc2-c2ccc(C#N)c(F)c2)on1 [Example 38, (R)-4-(3-(3-aminopiperidine-1-carbonyl)-1-(2-(3-methylisoxazol-5-yl)ethyl)-1H-pyrazol-5-yl)-2-fluorobenzonitrile]",1000 to 10000,> 10000,–,–
"COc1ccc(-n2nc(C(=O)N[C@@H]3CCC[C@@H](N)C3)cc2-c2ccc(C#N)c(F)c2)cc1 [Example 23, N-((1R,3R)-3-aminocyclohexyl)-5-(4-cyano-3-fluorophenyl)-1-(4-methoxyphenyl)-1H-pyrazole-3-carboxamide 2,2,2-trifluoroacetate]",1000 to 10000,1000 to 10000,–,–
"COc1ccc(-n2nc(C(=O)N[C@@H]3CCNC3)cc2-c2ccc(C#N)c(F)c2)cc1 [Example 27, (R)-5-(4-cyano-3-fluorophenyl)-1-(4-methoxyphenyl)-N-(pyrrolidin-3-yl)-1H-pyrazole-3-carboxamide 2,2,2-trifluoroacetate]",1000 to 10000,1000 to 10000,–,–
"COc1ccc(-n2nc(C(=O)NC3CCCC(N)C3)cc2-c2ccc(C#N)c(F)c2)cc1 (stereo not shown) [Example 20, N-(3-aminocyclohexyl)-5-(4-cyano-3-fluorophenyl)-1-(4-methoxyphenyl)-1H-pyrazole-3-carboxamide 2,2,2-trifluoroacetate]",1000 to 10000,1000 to 10000,–,–
"COc1ccc(Cn2nc(C(=O)N3CCC[C@H](N)C3)cc2-c2ccc(C#N)c(F)c2)cc1 [Example 34, (S)-4-(3-(3-aminopiperidine-1-carbonyl)-1-(4-methoxybenzyl)-1H-pyrazol-5-yl)-2-fluorobenzonitrile 2,2,2-trifluoroacetate]",1000 to 10000,500 to 1000,–,–
"CN1CCN(c2ccc(-n3nc(-c4ccc(C#N)c(F)c4)cc3C(=O)N3CCC[C@@H](N)C3)cc2)CC1 [Example 58, (R)-4-(5-(3-aminopiperidine-1-carbonyl)-1-(4-(4-methylpiperazin-1-yl)phenyl)-1H-pyrazol-3-yl)-2-fluorobenzonitrile 2,2,2-trifluoroacetate]",–,< 500,< 500,–
"COP(=O)(OC)OCCCOC1CCN(c2ccc(-n3nc(C(=O)N4CCC[C@@H](N)C4)cc3-c3ccc(C#N)c(F)c3)cc2)CC1 [Example 70, (R)-3-((1-(4-(3-(3-aminopiperidine-1-carbonyl)-5-(4-cyano-3-fluorophenyl)-1H-pyrazol-1-yl)phenyl)piperidin-4-yl)oxy)propyl dimethyl phosphate 2,2,2-trifluoroacetate]",–,< 500,–,< 500
"CN1CCN(c2ccc(-n3nc(C(=O)N4CCC[C@H](N)C4)cc3-c3ccc(C#N)c(F)c3)cc2)CC1 [Example 59, (S)-4-(3-(3-aminopiperidine-1-carbonyl)-1-(4-(4-methylpiperazin-1-yl)phenyl)-1H-pyrazol-5-yl)-2-fluorobenzonitrile]",1000 to 10000,< 500,< 500,–
"Cc1ccc(-n2nc(-c3ccc(C#N)c(F)c3)cc2C(=O)N2CCCC(N)C2)cc1 (stereo not shown) [Example 14, 4-(5-(3-Aminopiperidine-1-carbonyl)-1-(p-tolyl)-1H-pyrazol-3-yl)-2-fluorobenzonitrile]",1000 to 10000,< 500,–,–
"Cc1ccc(-n2nc(C(=O)N3CCC[C@@H](N)C3)cc2-c2ccc(C#N)c(F)c2)cc1 [Example 11, (R)-4-(3-(3-Aminopiperidine-1-carbonyl)-1-(p-tolyl)-1H-pyrazol-5-yl)-2-fluorobenzonitrile]",< 500,< 500,< 500,–
"COc1ccc(-n2nc(C(=O)N3CCCC(N)C3)cc2-c2ccc(C#N)c(F)c2)cc1F (stereo not shown) [Example 35, 4-(3-(3-Aminopiperidine-1-carbonyl)-1-(3-fluoro-4-methoxyphenyl)-1H-pyrazol-5-yl)-2-fluorobenzonitrile]",< 500,< 500,–,–
"COc1ccc(-n2nc(C(=O)N3CC(CN)C3)cc2-c2ccc(C#N)c(F)c2)cc1 [Example 32, 4-(3-(3-(Aminomethyl)azetidine-1-carbonyl)-1-(4-methoxyphenyl)-1H-pyrazol-5-yl)-2-fluorobenzonitrile 2,2,2-trifluoroacetate]",1000 to 10000,1000 to 10000,–,–
"COc1ccc(-n2nc(C(=O)N[C@H]3CCC[C@@H](N)C3)cc2-c2ccc(C#N)c(F)c2)cc1 [Example 22, N-((1S,3R)-3-aminocyclohexyl)-5-(4-cyano-3-fluorophenyl)-1-(4-methoxyphenyl)-1H-pyrazole-3-carboxamide]",1000 to 10000,500 to 1000,–,–
"COc1ccc(-n2nc(C(=O)N3CCCC(N)C3)cc2-c2ccc(C#N)c(F)c2)cc1 (stereo not shown) [Example 16, 4-(3-(3-Aminopiperidine-1-carbonyl)-1-(4-methoxyphenyl)-1H-pyrazol-5-yl)-2-fluorobenzonitrile]",< 500,< 500,–,–
"COc1ccc(-n2nc(C(=O)N[C@H]3CCC[C@H](N)C3)cc2-c2ccc(C#N)c(F)c2)cc1 [Example 25, N-((1S,3S)-3-aminocyclohexyl)-5-(4-cyano-3-fluorophenyl)-1-(4-methoxyphenyl)-1H-pyrazole-3-carboxamide 2,2,2-trifluoroacetate]",1000 to 10000,1000 to 10000,–,–

# Continued, in another order:
"IC50 [1, 3] [nM]",IC50 [2] [nM],Structure (SMILES),"IC50 [1, 4] [nM]","IC50 ([1]; MV4;11 cells, Day 10 (re-seeded at Day 5 with fresh compound), 10-point dose curve 0 to 50 μM, read-out: Cell Titer Glo IC50 (10 d)) [nM]"
1000 to 10000,< 500,"COc1ccc(-n2nc(NC(=O)[C@H]3CCC[C@H](N)C3)cc2-c2ccc(C#N)c(F)c2)cc1 [Example 90, (1S,3S)-3-amino-N-(5-(4-cyano-3-fluorophenyl)-1-(4-methoxyphenyl)-1H-pyrazol-3-yl)cyclohexane-1-carboxamide 2,2,2-trifluoroacetate]",–,–
–,< 500,"N#Cc1ccc(-c2cc(C(=O)N3CCC[C@@H](N)C3)nn2-c2ccc(-c3cnc4c(c3)OCCO4)cc2)cc1F [Example 84, (R)-4-(3-(3-aminopiperidine-1-carbonyl)-1-(4-(2,3-dihydro-[1,4]dioxino[2,3-b]pyridin-7-yl)phenyl)-1H-pyrazol-5-yl)-2-fluorobenzonitrile 2,2,2-trifluoroacetate]",< 500,–
–,< 500,"CN1CCN(c2ccc(-n3nc(C(=O)N4CCC[C@@H](N)C4)cc3-c3ccc(C#N)c(F)c3)c(F)c2)CC1=O [Example 68, (R)-4-(3-(3-aminopiperidine-1-carbonyl)-1-(2-fluoro-4-(4-methyl-3-oxopiperazin-1-yl)phenyl)-1H-pyrazol-5-yl)-2-fluorobenzonitrile]",< 500,–
–,< 500,"Cn1cc(-c2ccc(-n3nc(C(=O)N4CCC[C@@H](N)C4)cc3-c3ccc(C#N)c(F)c3)cc2)cn1 [Example 66, (R)-4-(3-(3-aminopiperidine-1-carbonyl)-1-(4-(1-methyl-1H-pyrazol-4-yl)phenyl)-1H-pyrazol-5-yl)-2-fluorobenzonitrile 2,2,2-trifluoroacetate]",< 500,–
1000 to 10000,500 to 1000,"COc1ccc(-n2nc(NC(=O)C3CCNCC3)cc2-c2ccc(C#N)c(F)c2)cc1 [Example 92, N-(5-(4-cyano-3-fluorophenyl)-1-(4-methoxyphenyl)-1H-pyrazol-3-yl)piperidine-4-carboxamide 2,2,2-trifluoroacetate]",–,–
–,< 500,"N#Cc1ccc(-c2cc(C(=O)N3CCC[C@@H](N)C3)nn2-c2ccc(N3CCCC3)cc2)cc1F [Example 62, (R)-4-(3-(3-aminopiperidine-1-carbonyl)-1-(4-(pyrrolidin-1-yl)phenyl)-1H-pyrazol-5-yl)-2-fluorobenzonitrile 2,2,2-trifluoroacetate]",< 500,–
< 500,< 500,"N#Cc1ccc(-c2cc(C(=O)N3CCC[C@H](N)C3)nn2-c2ccc(N3CCCC3)cc2)cc1F [Example 61, (S)-4-(3-(3-aminopiperidine-1-carbonyl)-1-(4-(pyrrolidin-1-yl)phenyl)-1H-pyrazol-5-yl)-2-fluorobenzonitrile 2,2,2-trifluoroacetate]",< 500,–
1000 to 10000,< 500,"COc1ccc(-n2nc(NC(=O)[C@H]3CCNC3)cc2-c2ccc(C#N)c(F)c2)cc1 [Example 95, (S)-N-(5-(4-cyano-3-fluorophenyl)-1-(4-methoxyphenyl)-1H-pyrazol-3-yl)pyrrolidine-3-carboxamide 2,2,2-trifluoroacetate]",–,–

# From patent publication US20260085082A1, “KDM1A INHIBITORS FOR THE TREATMENT OF DISEASE” (Imago Biosciences, Inc., priority 2022, published 2026)
